The values that follow come from patent US8093286B2, “Methods for treatment with bucindolol based on genetic targeting” (The Regents of the University of Colorado, a body corporate, priority 2004, dated 2012).

Structures are written as SMILES. “Also recorded” adds a separate entry of the source.

For assay [1], the system named is failing human right ventricular trabeculae. Kind of assay: contractile response of isolated right ventricular trabeculae from failing human hearts. The settings on record: for maximal isoproterenol-stimulated systolic tension: failing hearts. As to the method: (§1) Nonfailing hearts were obtained from local potential organ donors whose hearts were not transplanted because of physical or ABO blood type incompatibility. Failing hearts were from patients with end-stage heart failure due to ischemic or non-ischemic dilated cardiomyopathies who underwent cardiac transplantation. The demographic characteristics of the hearts are provided in Results. The contractile response of isolated, field stimulated, human trabeculae was assessed as previously described {1755; a-c}. Trabeculae of uniform size (1 to 2×6 to 8 mm) were mounted in 80 ml muscle bath chambers in Tyrode's solution at pH 7.45 bubbled with 95% O2-5% CO2 at 36^0. After equilibration, a tension of 75% of Lmax was applied to each individual trabeculum. Field-stimulation by a 5-ms pulse at 10% above threshold was then applied, and after equilibration full dose-response curves to isoproterenol, bucindolol or xamoterol were performed using the indicated concentrations and application of increasing doses every 5 minutes. In experiments in which forskolin was used to enhance signal transduction {e,f}, 10^−6 M of this adenylyl cyclase activator was applied to the tissue baths 15-20 minutes prior to the performance of dose-response curves, and allowed to achieve stability of tension response. Systolic tension at each dose was calculated as the stimulated tension in mN/mm^2 minus baseline tension. The maximum tension, concentration of isoproterenol that produced 50% of the maximum developed tension (EC50) and curve slope were computed by nonlinear repeated measures analysis of covariance. […] Statistical methods were employed as described in Examples 3 and 4.

The test system of assay [2] is nonfailing human right ventricular trabeculae. Briefly: contractile response of isolated right ventricular trabeculae from nonfailing human hearts. As to the method:
as §1

Another assay relates to heart failure patients. The settings on record: cited from earlier work.
Another assay relates to norepinephrine. The note with it: 3 months, MOXCON Trial; cited from earlier work.
The test system of assay [3] is β1-Arg389 transgenic mice (ventricular expression of human β1AR). Kind of assay: chronic β-blockade in transgenic mice, Western blots of ventricular signaling and Ca2+-handling proteins. Type of assay: in vivo, mouse. The note with it: 0.5 mg/ml in drinking water for 6 months; ANOVA P<0.002. As to the method: (§2) Using the α-myosin heavy chain promoter, transgenic mice with targeted ventricular expression of the human β1AR (Arg389 or Gly389 forms) were utilized to ascertain allele-specific responses to chronic administration of the […] propranolol. […] The generation of these mice and their partial characterization has recently been reported in detail elsewhere (Perez et al, 2003). For the current studies, 3-month-old mice of both genotypes, as well as nontransgenic mice, were treated with propranolol (0.5 mg/ml) in their drinking water, or water without propranolol (control) continuously for 6 months. Hearts were then removed and ventricular protein extracts prepared. These were subjected to Western blotting to ascertain expression of the following proteins using methods previously described (Perez et al., 2003): Gαs, Gαi2, G-protein coupled receptor kinase-2 (GRK2), adenylyl cyclase type 5 (AC5), total phospholamban (T-PLN), phosphorylated phospholamban (P-PLN) and sarcoplasmic endoplasmic reticulum calcium ATPase-2A (SERCA). Treatment effect was assessed by comparing expression of the proteins of untreated and propranolol treated mice, within genotype, by ANOVA. The study was approved by the University of Cincinnati Animal Use and Care Committee.
(A western blot detects proteins with antibodies after separation by electrophoresis.)

In assay [4] the test system is β1-Gly389 transgenic mice (ventricular expression of human β1AR). The description is as above. The class given is in vivo, mouse. The settings on record: 0.5 mg/ml in drinking water for 6 months; P=0.67. As to the method:
as §2

Where [5] appears, read: U.S. enrolled patients in MERIT-HF.

As for `COc1ccccc1OCCNCC(O)COc1cccc2[nH]c3ccccc3c12` (stereo not drawn) [carvedilol], in assay [1] (failing heart, forskolin pretreated preparations), the “positive inotropic signal compared with bucindolol” value is “more of a positive inotropic signal than bucindolol”.
Take `CC(C)NCC(O)c1ccc(O)c(O)c1` (stereo not drawn) [isoproterenol]: the “maximal isoproterenol-stimulated systolic tension” value is listed as 9.4±1.9 mN/mm^2 in assay [1] (β1-Arg389 homozygotes), 2.4±0.60 mN/mm^2 in assay [1] (β1-Gly389 carriers), 13±2.5 mN/mm^2 in assay [2] (β1-Arg389 homozygotes) and 5.2±1.4 mN/mm^2 in assay [2] (β1-Gly389 carriers).
As to `COCCc1ccc(OCC(O)CNC(C)C)cc1.COCCc1ccc(OCC(O)CNC(C)C)cc1.O=C(O)CCC(=O)O` (stereo not drawn) [metoprolol CR/XL, metoprolol succinate CR/XL], the “Mortality + HF Hospitalization hazard ratio vs placebo” value in the assay with heart failure patients (MERIT-HF US Pts (n = 1071/3991)) is given as ~0.84; 200 Ev. In addition, the “mortality plus heart failure hospitalization hazard ratio vs placebo” value with heart failure patients (MERIT-HF entire cohort (UCL 0.80)) is 0.69. Also, in the assay on heart failure patients (setting [5]), the mortality increase is 5% and the “mortality+HF hospitalization decrease” value is listed as 16%.
As for `COc1nc(C)nc(Cl)c1N=C1NCCN1` [moxonidine], the “relative reduction in norepinephrine” value in the assay on norepinephrine is recorded as 24%.
For the compound `CC(C)NCC(O)COc1cccc2ccccc12` (stereo not drawn) [propranolol], the “treatment effect on expression of cardiac signaling and Ca2+-handling proteins” value is given as “overall treatment response” in assay [3] and “no effect” in assay [4].
On to `O=C(NCCNCC(O)COc1ccc(O)cc1)N1CCOCC1` (stereo not drawn) [xamoterol], for which the “inotropic effect on systolic force (dose-response curve slope)” value in assay [1] (β1AR Arg/Arg, forskolin pretreatment) was “increase in force”; in assay [1] (β1AR Arg/Arg, forskolin pretreatment, listed as Xamoterol), “positive inotropic effect”; in assay [1] (β1AR Arg/Arg, without forskolin) it was “increase in force; also recorded: positive inotropic effect”; in assay [1] (β1AR Gly carriers, forskolin pretreatment), “increase in force”; in assay [1] (β1AR Gly carriers, forskolin pretreatment, listed as Xamoterol) it was “positive inotropic effect”; in assay [1] (β1AR Gly carriers, without forskolin), “negative inotropic effect”.
